Laboratory results from patent US20150359795A1, “HIGH DRUG LOAD PHARMACEUTICAL COMPOSITIONS WITH CONTROLLABLE RELEASE RATE AND PRODUCTION METHODS THEREOF” (Pharmosa Limited, priority 2014, published 2015).
Counter-ions that a name gives are not always drawn.

Tests used:
[1] = Viscosity of saturated or unsaturated aqueous solutions of APIs, rotational viscometer (Brooksfield); format: physicochemical
Method: The viscosities of saturated aqueous solutions or aqueous solutions with different weight percentage are measured with Rotational viscometers (Brooksfield, USA) at constant temperature 25° C., and the rotation speed is 5-100 rpm.
(§1) The viscosities of saturated aqueous solutions or aqueous solutions with different weight percentage of the compounds are measured with Rotational viscometers (Brooksfield, USA) at 25° C.

[2] = Tablet-forming ability of APIs (self-granulation with water, hardness and friability of tablets); format: physicochemical; details: tablets of 99% API and 1% magnesium stearate, about 100 mg; for The tablet-forming ability Hardness of tablets (kp): wet granulated with purified water
Method: as §1
Each API listed in Table 1-1 is separately weighed […] and wet granulated in a high shear mixer using purified water. The wet granules are dried in an oven and sieved with 20 mesh screen. Each of the dried granules is separately transferred into a V-blender, and mixed with 5 g of magnesium stearate. The obtained mixture is compressed into tablets. Every tablet weighs about 100 mg, and contains magnesium stearate and an individual API.

[3] = prior art formulation with lactose, microcrystalline cellulose, crospovidone, magnesium stearate; cited from earlier work

Row | SMILES | Unsaturated aqueous solution at 25° C. Viscosity (cP) ([1]; weight percent 30%) | Saturated aqueous solution at 25° C. Viscosity (cP) [1] | The tablet-forming ability Friability of tablets (%) [2] | The tablet-forming ability Hardness of tablets (kp) [2] | Unsaturated aqueous solution at 25° C. Viscosity (cP) ([1]; weight percent 25%) | Unsaturated aqueous solution at 25° C. Viscosity (cP) ([1]; weight percent 10%) | drug dissolved in 5 minutes in vitro [3]
1 | COc1cc2nc(N(C)CCCNC(=O)C3CCCO3)nc(N)c2cc1OC (stereo not shown) [Alfuzosin HCl] | ~10 cP | ~170 cP | <0.1% | 3-8 kp | – | – | –
2 | NS(=O)(=O)c1cc2c(cc1Cl)NCNS2(=O)=O [Hydrochlorothiazide] | – | ~1 cP | – | – | – | – | –
3 | Cc1ccc(NC(=O)c2ccc(CN3CCN(C)CC3)cc2)cc1Nc1nccc(-c2cccnc2)n1 [Imatinib mesylate] | – | ~1100 cP | <0.1% | 3-8 kp | ~15 cP | – | –
4 | CN(C)C(=N)N=C(N)N [Metformin HCl] | – | ~2 cP | – | – | – | – | –
5 | CCCCCCCCOc1ccccc1C(=O)Nc1ccc(C(=O)OCC[N+](C)(CC)CC)cc1 [Otilonium bromide] | – | ~540 cP | <0.1% | 3-8 kp | – | ~12 cP | more than 90%
6 | CCN1CCCC1CNC(=O)c1cc(S(N)(=O)=O)ccc1OC (stereo not shown) [Sulpiride] | – | ~2 cP | – | – | – | – | –
